Columns and labels:
[1] = system: Heliothis armigera caterpillars; assay: Heliothis armigera test; assay type: in vivo; details: found effect, dipped soya bean shoots
[2] = system: mustard beetle larvae (Phaedon cochleariae); assay: Phaedon larvae test; assay type: in vivo; details: found effect, dipped cabbage leaves
[3] = system: army worm caterpillars (Spodoptera frugiperda); assay: Spodoptera frugiperda test; assay type: in vivo; details: found effect, dipped cabbage leaves
Excerpt: Spodoptera Frugiperda Test

[4] = system: diamond-back moth caterpillars (Plutella xylostella, resistant strain); details: found effect, dipped cabbage leaves
Procedure: Plutella Test, Resistant Strain
After the desired period, the destruction in % is determined. 100% means that all of the caterpillars have been destroyed; 0% means that no caterpillars have been destroyed.

Compound | LC50 after 6 days [1] | LC95 after 3 days [2] | LC50 after 6 days [3] | LC50 after 6 days [4]
CC[C@H](C)[C@H]1O[C@]2(C=C[C@@H]1C)C[C@@H]1C[C@@H](C/C=C(\C)[C@@H](O[C@H]3C[C@H](OC)[C@@H](O[C@H]4C[C@H](OC)[C@@H](O)[C@H](C)O4)[C@H](C)O3)[C@@H](C)/C=C/C=C3\CO[C@@H]4[C@H](O)C(C)=C[C@@H](C(=O)O1)[C@]34O)O2 [Avermectin, abamectin] | 0.014 ppm | 0.281 ppm | 5.553 ppm | 
CN/C(=N\[N+](=O)[O-])NCC1CCOC1 (centres unmarked) [Dinotefuran, dinotefuran] | 13.165 ppm | 42.07 ppm | 2.861 ppm | 27.621 ppm
emamectin benzoate |  |  |  | 0.174 ppm

Source: patent US8389440B2, “Synergistic insecticide mixtures” (Bayer Cropscience AG, priority 2002, dated 2013)
